Experimental data as given in ChEMBL document CHEMBL3045886, “Benzothiazole Schiff-bases as potential imaging agents for -amyloid plaques in Alzheimers disease” (Med Chem Res, 2013).
Activity calls are given as the source filed them. The rule behind the calls is not given here.

Assays:
[1] = molecular target: T1, Amyloid-beta precursor protein (Homo sapiens, UniProt P05067); assay: Displacement of [125I]IMPY from beta amyloid (unknown origin) isolated from alzheimer's patient brain homogenates after 2 hr by gamma counting analysis
[2] = molecular target: T1, Amyloid-beta precursor protein; assay: Binding affinity to beta amyloid (unknown origin) isolated from alzheimer's patient brain homogenates at 50 uM after 20 min by fluorescence microscopic analysis relative to thioflavin S-treated control; format: tissue-based

T1 sequence (P05067 whole entry): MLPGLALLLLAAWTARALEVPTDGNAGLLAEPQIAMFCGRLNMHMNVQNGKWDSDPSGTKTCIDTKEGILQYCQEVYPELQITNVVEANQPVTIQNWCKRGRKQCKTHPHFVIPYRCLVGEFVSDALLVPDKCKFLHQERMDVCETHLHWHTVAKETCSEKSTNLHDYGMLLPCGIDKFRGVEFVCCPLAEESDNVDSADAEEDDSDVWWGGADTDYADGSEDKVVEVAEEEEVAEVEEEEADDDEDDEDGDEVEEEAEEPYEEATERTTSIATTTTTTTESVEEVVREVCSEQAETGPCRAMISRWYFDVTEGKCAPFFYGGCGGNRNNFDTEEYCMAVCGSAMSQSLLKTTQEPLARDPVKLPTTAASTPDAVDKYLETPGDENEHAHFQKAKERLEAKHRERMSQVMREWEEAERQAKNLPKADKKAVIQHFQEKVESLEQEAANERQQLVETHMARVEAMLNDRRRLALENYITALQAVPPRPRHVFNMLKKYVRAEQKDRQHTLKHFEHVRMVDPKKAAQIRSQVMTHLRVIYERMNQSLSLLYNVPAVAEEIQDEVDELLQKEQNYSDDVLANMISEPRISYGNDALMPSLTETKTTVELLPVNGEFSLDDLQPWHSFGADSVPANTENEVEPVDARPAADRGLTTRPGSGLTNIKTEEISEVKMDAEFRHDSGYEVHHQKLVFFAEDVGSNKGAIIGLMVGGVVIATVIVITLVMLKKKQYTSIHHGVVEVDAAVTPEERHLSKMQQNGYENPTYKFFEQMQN

Row | SMILES | Ki [1] [µM] | Activity [2]
1 | COc1ccc2nc(/N=C/c3ccc(Br)cc3)sc2c1 | 0.106 | 
2 | COc1ccc2nc(/N=C/c3ccc(N(C)C)cc3)sc2c1 | 0.00438 | Active
3 | COc1ccc2nc(/N=C/c3ccc(O)cc3)sc2c1 | 0.0347 | 
4 | COc1ccc2nc(/N=C/c3ccc(I)cc3)sc2c1 | 0.103 | 
5 | COc1ccc(/C=N/c2nc3ccc(OC)cc3s2)cc1 | 0.0108 | 
6 | COc1ccc2nc(/N=C/c3ccc([N+](=O)[O-])cc3)sc2c1 | 0.515 | 
